{"source": "patent US20180272327A1", "about": "“IONIC LIQUID CATALYST TREATING SYSTEM” (UOP LLC, priority 2015, published 2018)", "tested_on": "Aliivibrio fischeri bacteria", "assay": "Toxicity test: EC-50 for the luminescence of Aliivibrio fischeri bacteria", "assay_type": "cell-based", "details": "for EC-50 for this ionic liquid: worked out from the dilution EC-50 and the ionic liquid content of the solution", "description": "After filtration to remove the precipitate, this solution, which contains approximately 0.014 mg of ionic liquid/mg solution, was tested for toxicity. The half maximal effective concentration (EC-50) for this solution was then determined for the luminescence of Aliivibrio fischeri bacteria to assess the toxicity of the solution. […] 10.1 grams of a tri-butyl pentyl phosphonium ionic liquid (TBPP) was added to 770 grams of deionized (DI) water, giving a pH of about 3. […] After filtration to remove the precipitate, this solution, which contains approximately 0.013 mg of ionic liquid/mg solution, was tested for toxicity. The EC-50 for this solution was then determined for the luminescence of Aliivibrio fischeri bacteria to assess the toxicity of the solution.", "key": {"[1]": {"details": "luminescence of Aliivibrio fischeri"}}}
{"compound": "CCCCn1cc[n+](C)c1.F[P-](F)(F)(F)(F)F", "note": "[BMIM, 1-butyl-3-methylimidazolium hexafluorophosphate]", "values": [{"measurement": "EC50", "setting": "Aliivibrio fischeri, read-out: EC-50 reached at a dilution (of the neutralized, filtered ionic liquid solution)", "value": 5.7, "unit": "µg/mL"}, {"measurement": "EC-50 for this ionic liquid", "setting": "[1]", "value": "approximately 80 ppB"}]}
{"compound": "tri-butyl pentyl phosphonium ionic liquid [TBPP]", "values": [{"measurement": "EC-50 reached at a dilution (of the neutralized, filtered ionic liquid solution)", "setting": "luminescence of Aliivibrio fischeri, ionic liquid in DI water neutralized with NaOH to pH approximately 6, precipitate filtered off, approximately 0.013-0.014 mg ionic liquid/mg solution", "value": 1.2, "unit": "mg solution/Liter water"}, {"measurement": "EC-50 for this ionic liquid", "setting": "[1]", "value": "approximately 16 ppB"}]}
